From ChEMBL document CHEMBL4020828, “Design and Syntheses of Highly Potent Teixobactin Analogues against Staphylococcus aureus, Methicillin-Resistant Staphylococcus aureus (MRSA), and Vancomycin-Resistant Enterococci (VRE) in Vitro and in Vivo” (J Med Chem, 2018)
≈ marks a conversion by molar mass, not a printed value. Positions of bridges follow the written chain, without caps; N, C: chain ends. Non-standard residues stand in square brackets, D forms with d. Residues, ends and D or L forms follow the SMILES beside them. dNMeF = CN[C@H](Cc1ccccc1)C(=O)O

Key:
[1] = test system: Staphylococcus saprophyticus; test: Antibacterial activity against Staphylococcus saprophyticus ATCC 49907 after 24 hrs; format: functional; details: ATCC 49907, 24 h
[2] = test system: Staphylococcus epidermidis; test: Antibacterial activity against Staphylococcus epidermidis 12228 after 24 hrs; format: functional; details: Staphylococcus epidermidis, 12228, 24 h
Enterococcus faecalis [3] = test: Antibacterial activity against vancomycin-resistant Enterococcus faecalis isolate 1001 after 24 hrs; format: functional; details: isolate 1001, 24 h
[4] = test system: Bacillus subtilis (Bacillus subtilis); test: Antibacterial activity against Bacillus subtilis ATCC 6633 after 24 hrs; details: ATCC 6633, 24 h
[5] = test system: Staphylococcus saprophyticus; test: Antibacterial activity against Staphylococcus saprophyticus ATCC 49453 after 24 hrs; format: functional; details: ATCC 49453, 24 h
Bacillus cereus = test: Antibacterial activity against Bacillus cereus ATCC 11788 after 24 hrs; format: functional; details: ATCC 11788, 24 h
Enterococcus faecalis [6] = test: Antibacterial activity against vancomycin-resistant Enterococcus faecalis isolate 1004 after 24 hrs; format: functional; details: isolate 1004, 24 h
Staphylococcus aureus [7] = test: Antibacterial activity against Staphylococcus aureus 4299 after 24 hrs; format: functional; details: Staphylococcus aureus, 4299, 24 h
Enterococcus faecalis [8] = test: Antibacterial activity against vancomycin-resistant Enterococcus faecalis isolate 1002 after 24 hrs; format: functional; details: isolate 1002, 24 h
Staphylococcus aureus [9] = test: Antibacterial activity against methicillin-resistant Staphylococcus aureus isolate 42412 after 24 hrs; format: functional; details: isolate 42412, 24 h
Staphylococcus aureus [10] = test: Antibacterial activity against methicillin-resistant Staphylococcus aureus isolate 21455 after 24 hrs; format: functional; details: isolate 21455, 24 h
Staphylococcus aureus [11] = test: Antibacterial activity against methicillin-resistant Staphylococcus aureus ATCC 700699 after 24 hrs; format: functional; details: ATCC 700699, 24 h
[12] = test system: Staphylococcus saprophyticus; test: Antibacterial activity against Staphylococcus saprophyticus ATCC BAA 750 after 24 hrs; format: functional; details: ATCC BAA 750, 24 h
[13] = test system: Staphylococcus saprophyticus; test: Antibacterial activity against Staphylococcus saprophyticus ATCC 15305 after 24 hrs; format: functional; details: ATCC 15305, 24 h
Staphylococcus aureus [14] = test: Antibacterial activity against methicillin-resistant Staphylococcus aureus ATCC 33591 after 24 hrs; format: functional; details: ATCC 33591, 24 h
Staphylococcus aureus [15] = test: Antibacterial activity against Staphylococcus aureus ATCC 29213 after 24 hrs; format: functional; details: ATCC 29213, 24 h
Enterococcus faecalis [16] = test: Antibacterial activity against vancomycin-resistant Enterococcus faecalis ATCC 700802 after 24 hrs; format: functional; details: ATCC 700802, 24 h
Enterococcus faecalis [17] = test: Antibacterial activity against vancomycin-resistant Enterococcus faecalis ATCC 29212 after 24 hrs; format: functional; details: ATCC 29212, 24 h
Enterococcus faecalis [18] = test: Antibacterial activity against vancomycin-resistant Enterococcus faecalis isolate 1008 after 24 hrs; format: functional; details: isolate 1008, 24 h
Staphylococcus aureus [19] = test: Antibacterial activity against methicillin-resistant Staphylococcus aureus isolate 1003 after 24 hrs; format: functional; details: isolate 1003, 24 h

| Compound | MIC [1] [µg/mL] | MIC [2] [µg/mL] | MIC (Enterococcus faecalis [3]) [µg/mL] | MIC [4] [µg/mL] | MIC [5] [µg/mL] | MIC (Bacillus cereus) [µg/mL] | MIC (Enterococcus faecalis [6]) [µg/mL] | MIC (Staphylococcus aureus [7]) [µg/mL] | MIC (Enterococcus faecalis [8]) [µg/mL] | MIC (Staphylococcus aureus [9]) [µg/mL] | MIC (Staphylococcus aureus [10]) [µg/mL] | MIC (Staphylococcus aureus [11]) [µg/mL] | MIC [12] [µg/mL] | MIC [13] [µg/mL] | MIC (Staphylococcus aureus [14]) [µg/mL] | MIC (Staphylococcus aureus [15]) [µg/mL] | MIC (Enterococcus faecalis [16]) [µg/mL] | MIC (Enterococcus faecalis [17]) [µg/mL] | MIC (Enterococcus faecalis [18]) [µg/mL] | MIC (Staphylococcus aureus [19]) [µg/mL] |
| --- | --- | --- | --- | --- | --- | --- | --- | --- | --- | --- | --- | --- | --- | --- | --- | --- | --- | --- | --- | --- |
| CC[C@@H](C)[C@@H](NC(=O)[C@@H](CCCNC(=N)N)NC(=O)[C@H](CCCNC(=N)N)NC(=O)[C@@H](NC(=O)[C@@H](Cc1ccccc1)NC)[C@@H](C)CC)C(=O)N[C@H](C(=O)N[C@@H](CO)C(=O)N[C@H]1C(=O)N[C@@H](C)C(=O)N[C@@H](CC(C)C)C(=O)N[C@@H]([C@@H](C)CC)C(=O)O[C@H]1C)[C@@H](C)CC (H-[dNMeF]IR[dR][dI]IS[dT]ALI; ester 8-C) | < 0.0625 | < 0.0625 | 1 (≈ 0.77 µM) | < 0.0625 | < 0.0625 | 1 (≈ 0.77 µM) | 0.5 (≈ 0.385 µM) | 0.25 (≈ 0.193 µM) | 1 (≈ 0.77 µM) | 0.25 (≈ 0.193 µM) | 0.5 (≈ 0.385 µM) | 0.5 (≈ 0.385 µM) | < 0.0625 | < 0.0625 | 0.25 (≈ 0.193 µM) | 0.25 (≈ 0.193 µM) | 2 (≈ 1.54 µM) | 1 (≈ 0.77 µM) | 0.5 (≈ 0.385 µM) | 1 (≈ 0.77 µM) |
| CC[C@@H](C)[C@@H](NC(=O)[C@@H](CCCNC(=N)N)NC(=O)[C@H](CO)NC(=O)[C@@H](NC(=O)[C@@H](Cc1ccccc1)NC)[C@@H](C)CC)C(=O)N[C@H](C(=O)N[C@@H](CO)C(=O)N[C@H]1C(=O)N[C@@H](C)C(=O)N[C@@H]([C@@H](C)CC)C(=O)N[C@@H]([C@@H](C)CC)C(=O)O[C@H]1C)[C@@H](C)CC | < 0.0625 | < 0.0625 | 0.5 (≈ 0.407 µM) | < 0.0625 | < 0.0625 | < 0.0625 | 0.5 (≈ 0.407 µM) | < 0.0625 | 1 (≈ 0.813 µM) | < 0.0625 | 0.0312 (≈ 0.0254 µM) | 0.25 (≈ 0.203 µM) | < 0.0625 | < 0.0625 | 0.125 (≈ 0.102 µM) | 0.0625 (≈ 0.0508 µM) | 0.25 (≈ 0.203 µM) | 0.25 (≈ 0.203 µM) | 0.5 (≈ 0.407 µM) | < 0.0625 |
| CC[C@@H](C)[C@@H](NC(=O)[C@@H](CCC(N)=O)NC(=O)[C@H](CO)NC(=O)[C@@H](NC(=O)[C@@H](Cc1ccccc1)NC)[C@@H](C)CC)C(=O)N[C@H](C(=O)N[C@@H](CO)C(=O)N[C@H]1C(=O)N[C@@H](CCCNC(=N)N)C(=O)N[C@@H]([C@@H](C)CC)C(=O)N[C@@H]([C@@H](C)CC)C(=O)O[C@H]1C)[C@@H](C)CC | < 0.0625 | < 0.0625 | 1 (≈ 0.777 µM) | 0.125 (≈ 0.0972 µM) | < 0.0625 | 0.5 (≈ 0.389 µM) | 1 (≈ 0.777 µM) | 1 (≈ 0.777 µM) | 1 (≈ 0.777 µM) | 0.125 (≈ 0.0972 µM) | 0.5 (≈ 0.389 µM) | 1 (≈ 0.777 µM) | < 0.0625 | < 0.0625 | 0.25 (≈ 0.194 µM) | 1 (≈ 0.777 µM) | 1 (≈ 0.777 µM) | 1 (≈ 0.777 µM) | 1 (≈ 0.777 µM) | 0.5 (≈ 0.389 µM) |
| CC[C@@H](C)[C@@H](NC(=O)[C@@H](CCC(N)=O)NC(=O)[C@H](CO)NC(=O)[C@@H](NC(=O)[C@@H](Cc1ccccc1)NC)[C@@H](C)CC)C(=O)N[C@H](C(=O)N[C@@H](CO)C(=O)N[C@H]1C(=O)N[C@@H](CCCNC(=N)N)C(=O)N[C@@H](CC(C)C)C(=O)N[C@@H]([C@@H](C)CC)C(=O)O[C@H]1C)[C@@H](C)CC (H-[dNMeF]IS[dQ][dI]IS[dT]RLI; ester 8-C) | < 0.0625 | < 0.0625 | 0.5 (≈ 0.389 µM) | < 0.0625 | < 0.0625 | 0.25 (≈ 0.194 µM) | 0.25 (≈ 0.194 µM) | 0.25 (≈ 0.194 µM) | 1 (≈ 0.777 µM) | < 0.0625 | 0.25 (≈ 0.194 µM) | 0.5 (≈ 0.389 µM) | < 0.0625 | < 0.0625 | 0.125 (≈ 0.0972 µM) | 0.5 (≈ 0.389 µM) | 0.5 (≈ 0.389 µM) | 1 (≈ 0.777 µM) | 0.25 (≈ 0.194 µM) | 0.25 (≈ 0.194 µM) |
| CC[C@@H](C)[C@@H](NC(=O)[C@@H](CCC(N)=O)NC(=O)[C@H](CCCNC(=N)N)NC(=O)[C@@H](NC(=O)[C@@H](Cc1ccccc1)NC)[C@@H](C)CC)C(=O)N[C@H](C(=O)N[C@@H](CO)C(=O)N[C@H]1C(=O)N[C@@H](C)C(=O)N[C@@H]([C@@H](C)CC)C(=O)N[C@@H]([C@@H](C)CC)C(=O)O[C@H]1C)[C@@H](C)CC | < 0.0625 | < 0.0625 | 1 (≈ 0.787 µM) | < 0.0625 | < 0.0625 | 0.125 (≈ 0.0984 µM) | 1 (≈ 0.787 µM) | 0.125 (≈ 0.0984 µM) | 1 (≈ 0.787 µM) | 0.125 (≈ 0.0984 µM) | 0.25 (≈ 0.197 µM) | 1 (≈ 0.787 µM) | < 0.0625 | < 0.0625 | 0.25 (≈ 0.197 µM) | 0.5 (≈ 0.394 µM) | 1 (≈ 0.787 µM) | 1 (≈ 0.787 µM) | 1 (≈ 0.787 µM) | 0.125 (≈ 0.0984 µM) |
| CC[C@@H](C)[C@@H](NC(=O)[C@@H](CCCNC(=N)N)NC(=O)[C@H](CO)NC(=O)[C@@H](NC(=O)[C@@H](Cc1ccccc1)NC)[C@@H](C)CC)C(=O)N[C@H](C(=O)N[C@@H](CO)C(=O)N[C@H]1C(=O)N[C@@H](CCCNC(=N)N)C(=O)N[C@@H](CC(C)C)C(=O)N[C@@H]([C@@H](C)CC)C(=O)O[C@H]1C)[C@@H](C)CC (H-[dNMeF]IS[dR][dI]IS[dT]RLI; ester 8-C) | < 0.0625 | < 0.0625 | 1 (≈ 0.761 µM) | < 0.0625 | < 0.0625 | 1 (≈ 0.761 µM) | 1 (≈ 0.761 µM) | 0.5 (≈ 0.38 µM) | 1 (≈ 0.761 µM) | 1 (≈ 0.761 µM) | 1 (≈ 0.761 µM) | 1 (≈ 0.761 µM) | < 0.0625 | < 0.0625 | 1 (≈ 0.761 µM) | 1 (≈ 0.761 µM) | 1 (≈ 0.761 µM) | 1 (≈ 0.761 µM) | 1 (≈ 0.761 µM) | 0.5 (≈ 0.38 µM) |
| CC[C@@H](C)[C@@H](NC(=O)[C@@H](CCCNC(=N)N)NC(=O)[C@H](CCCNC(=N)N)NC(=O)[C@@H](NC(=O)[C@@H](Cc1ccccc1)NC)[C@@H](C)CC)C(=O)N[C@H](C(=O)N[C@@H](CO)C(=O)N[C@H]1C(=O)N[C@@H](CCCNC(=N)N)C(=O)N[C@@H](CC(C)C)C(=O)N[C@@H]([C@@H](C)CC)C(=O)O[C@H]1C)[C@@H](C)CC (H-[dNMeF]IR[dR][dI]IS[dT]RLI; ester 8-C) | < 0.0625 | < 0.0625 | 2 (≈ 1.45 µM) | < 0.0625 | < 0.0625 | 1 (≈ 0.723 µM) | 4 (≈ 2.89 µM) | 1 (≈ 0.723 µM) | 8 (≈ 5.78 µM) | 2 (≈ 1.45 µM) | 2 (≈ 1.45 µM) | 2 (≈ 1.45 µM) | < 0.0625 | 0.25 (≈ 0.181 µM) | 1 (≈ 0.723 µM) | 1 (≈ 0.723 µM) | 4 (≈ 2.89 µM) | 4 (≈ 2.89 µM) | 8 (≈ 5.78 µM) | 2 (≈ 1.45 µM) |
| CC[C@@H](C)[C@@H](NC(=O)[C@@H](CCC(N)=O)NC(=O)[C@H](CCCNC(=N)N)NC(=O)[C@@H](NC(=O)[C@@H](Cc1ccccc1)NC)[C@@H](C)CC)C(=O)N[C@H](C(=O)N[C@@H](CO)C(=O)N[C@H]1C(=O)N[C@@H](CCCNC(=N)N)C(=O)N[C@@H](CC(C)C)C(=O)N[C@@H]([C@@H](C)CC)C(=O)O[C@H]1C)[C@@H](C)CC (H-[dNMeF]IR[dQ][dI]IS[dT]RLI; ester 8-C) | < 0.0625 | < 0.0625 | 0.5 (≈ 0.369 µM) | < 0.0625 | < 0.0625 | 1 (≈ 0.738 µM) | 0.5 (≈ 0.369 µM) | 0.5 (≈ 0.369 µM) | 1 (≈ 0.738 µM) | 0.25 (≈ 0.184 µM) | 1 (≈ 0.738 µM) | 1 (≈ 0.738 µM) | < 0.0625 | < 0.0625 | 1 (≈ 0.738 µM) | 1 (≈ 0.738 µM) | 1 (≈ 0.738 µM) | 1 (≈ 0.738 µM) | 0.5 (≈ 0.369 µM) | 2 (≈ 1.48 µM) |
